Common to all, as to type: cell-based
One test concerns Aβ-40. The experiment in a line: MSD Human (6E10) Ab 3-PLEX elisa, conditioned media of 2B7 cells: Aβ-40. As to conditions: for pIC50: Aβ-40 (superscript b). As to the method: (§1) Assays were conducted to determine the ability of a Compound of Formula I to modulate […], and Aβ-38.
(§2) Plates with capture antibodies were blocked for 1-2 hours at room temperature with 150 μL of the manufactures blocking reagent.
(§3) Conditioned Media: • Cultured 2B7 cells in 96 well plate with 250 uL of media per well until confluent; • Prepared serial dilutions of compounds in DMSO at 100× the final desired concentration; • Washed wells with 2B7 cells 1× with 250 uL of media; • Diluted DMSO stocks 1:100 into media: • Added 250 μL of media containing compounds (1% DMSO) to wells with 2B7 cells for 5 hours at 37° C.
(§4) Elisa Sample Prep: • Diluted conditioned media: 1 part media with 1% DMSO and 1 part blocking buffer; • 150 μL of the 250 μL of conditioned media were used.
(§5) […] CURVE SAMPLE PREP: Prepared per manufacturer's protocol (see above) • Seven point standard curve samples were prepared that contained Aβ-42, Aβ-40, and Aβ-38. The highest concentration of Aβ-42 and Aβ-3-38 was 3,000 pg/mL and the highest concentration of Aβ-40 was 10,000 pg/mL. Subsequent serial dilutions were 1:3 and the final composition of each sample was 1 part blocking buffer and 1 part cell medium containing 1% DMSO.
(§6) Overnight Sample Incubation: • Blocked plates are washed 5× with MSD wash buffer with a plate washer • 25 uL of detection antibody and blocker G reagent in MSD blocking solution is added • 25 uL of samples (1 part conditioned media containing 1% DMSO and 1 part MSD blocking buffer) are then added. • plates are incubated overnight at 4 degrees C. or 2 hours at room temp
(§7) Final Wash and Readout: • Wash wells 5× with MSD wash buffer • Added 150 μL 2×MSD read buffer • Read with MSD imager.
(§8) A-Beta peptide levels for each peptide are calculated from the standard curve using the MSD software provided with the MSD 2400 Imager. Percent vehicle values for each compound dosage were then calculated and fit to a 4 parameter curve generating IC50 values.

The subject of the next test is Aβ-42. The experiment in a line: MSD Human (6E10) Ab 3-PLEX elisa, conditioned media of 2B7 cells: Aβ-42. The settings on record: for pIC50: Aβ-42 (superscript c). As to the method:
as §1, §2, §3, §4, §5, §6, §7, §8

A further test concerns Aβ-38. The test is described as follows: MSD Human (6E10) Ab 3-PLEX elisa, conditioned media of 2B7 cells: Aβ-38. The settings on record: for pIC50: Aβ-38 (superscript a). As to the method:
as §1, §2, §3, §4, §5, §6, §7, §8

The mark [1] stands for this setting: Homo sapiens, read-out: IC50 range.
Where [2] appears, read: Homo sapiens, read-out: 50% reduction value.

pIC50: −log10 of the molar value. Like-named read-outs stand apart in the source and are kept apart here.

For the compound `C[C@@H]1CC(CN2CCC[C@H]2C(=O)O)OC2[C@H]1[C@@]1(C)CC[C@@]34C[C@@]35CC[C@H](O[C@H]3CN(C(=O)CC6CC6)CCO3)C(C)(C)[C@@H]5CCC4[C@]1(C)[C@H]2O` (stereo partly drawn), the inhibition at 100 µM in the test on Aβ-40 (Homo sapiens, Aβ-40, 100 μM) lay in the range of 25 to 75%; in the test with Aβ-38 (Homo sapiens, Aβ-38, 100 μM), 25 to 75%. For the same compound, the pIC50 with Aβ-42 (setting [1]) is less than 5.00.
In the case of `CCNC(=O)O[C@H](C(C)C)C1C[C@@H](C)[C@H]2C(O1)[C@H](O)[C@@]1(C)C3CC[C@H]4C(C)(C)C(OC(N)=O)CC[C@@]45C[C@@]35CC[C@]21C` (stereo partly drawn), the results for the pIC50 with Aβ-40 (setting [2]), with Aβ-42 (setting [2]) and in the test on Aβ-38 (setting [2]) were 5.00 to 6.00, more than 6.00 and more than 6.00, respectively.
With `CC1CC(C(OC(=O)C2CCOCC2)C(C)(C)O)OC2C1C1(C)CCC34CC35CCC(OC3CN(C6COC6)CCO3)C(C)(C)C5CCC4C1(C)C2O` (stereo not drawn), the pIC50 with Aβ-40 (read-out: 50% reduction value) was 5.00 to 6.00; with Aβ-40 (read-out: IC50 range) it was 5.00 to 6.00; with Aβ-42 (read-out: 50% reduction value) it was more than 6.00; with Aβ-38 (read-out: 50% reduction value), more than 6.00; with Aβ-38 (read-out: IC50 range), more than 6.00.
On to `CC1CC(C(OC(=O)C2CCC2)C(C)(C)O)OC2C1C1(C)CCC34CC35CCC(O)C(C)(C)C5CCC4C1(C)C2O` (stereo not drawn) [drawing 1216], for which the values for the pIC50 in the test on Aβ-40 (read-out: 50% reduction value), with Aβ-42 (read-out: 50% reduction value) and in the test on Aβ-38 (read-out: 50% reduction value) were 5.00 to 6.00, more than 6.00 and 5.00 to 6.00, respectively.
Regarding `CC(C)CC(=O)N1CCOC(OC2CC[C@]34C[C@]35CC[C@]3(C)[C@@H]6C(OC([C@H](OC(=O)N7CCC7)C(C)C)C[C@H]6C)[C@H](O)[C@@]3(C)C5CC[C@H]4C2(C)C)C1` (stereo partly drawn), the pIC50 with Aβ-40 (setting [2]), in the test with Aβ-40 (setting [1]), with Aβ-42 (setting [2]), in the test with Aβ-42 (setting [1]), in the test on Aβ-38 (setting [2]) and in the test on Aβ-38 (setting [1]) was 5.00 to 6.00 each time.
`CC(=O)OC(C)(C)C1C[C@@H](C)[C@H]2C(O1)[C@H](O)[C@@]1(C)C3CC[C@H]4C(C)(C)[C@@H](O)CC[C@@]45C[C@@]35CC[C@]21C` (stereo partly drawn): the pIC50 in the test with Aβ-40 (setting [2]) is less than 5.00; with Aβ-42 (setting [2]) it was less than 5.00; in the test on Aβ-38 (setting [2]) it was 5.00 to 6.00.
As to `CCOC(C)(C)[C@H](O)C1C[C@@H](C)[C@H]2C(O1)[C@H](O)[C@@]1(C)C3CC[C@H]4C(C)(C)C(O)CC[C@@]45C[C@@]35CC[C@]21C` (stereo partly drawn), the results for the pIC50 in the test with Aβ-40 (setting [2]) and with Aβ-38 (setting [2]) were less than 5.00 and 5.00 to 6.00, respectively. Besides, the inhibition at 20 µM with Aβ-42 (Homo sapiens, Aβ-42, 20 μM) is less than 25%.
`CC1CC(C(OC(=O)C2CCOC2)C(C)(C)O)OC2C1C1(C)CCC34CC35CCC(OC3CN(C6COC6)CCO3)C(C)(C)C5CCC4C1(C)C2O` (stereo not drawn): the pIC50 in the test on Aβ-40 (read-out: 50% reduction value) was 5.00 to 6.00; with Aβ-42 (read-out: 50% reduction value) it was 5.00 to 6.00; in the test on Aβ-38 (read-out: 50% reduction value), 5.00 to 6.00; with Aβ-38 (read-out: IC50 range), more than 6.00.
As to `CC(C)[C@@H](OC(=O)N1CCC1)C1C[C@@H](C)[C@H]2C(O1)[C@H](O)[C@@]1(C)C3CC[C@H]4C(C)(C)C(OC(=O)N5CCn6ccnc6C5)CC[C@@]45C[C@@]35CC[C@]21C` (stereo partly drawn), the pIC50 is less than 5.00 in the test with Aβ-40 (setting [2]), more than 6.00 with Aβ-42 (setting [2]) and more than 6.00 with Aβ-38 (setting [2]).
For `CC(C)[C@@H](OC(N)=O)C1C[C@@H](C)[C@H]2C(O1)[C@H](O)[C@@]1(C)[C@@H]3CC[C@H]4C(C)(C)C(O[C@H]5CNCCO5)CC[C@@]45C[C@@]35CC[C@]21C` (stereo partly drawn), the pIC50 in the test with Aβ-40 (setting [2]) was 5.00 to 6.00; in the test with Aβ-40 (setting [1]), 5.00 to 6.00; in the test with Aβ-42 (setting [2]), more than 6.00; in the test on Aβ-42 (setting [1]) it was more than 6.00; in the test with Aβ-38 (setting [2]), more than 6.00.
As to `CO[C@@H](C1C[C@@H](C)[C@H]2C(O1)[C@H](O)[C@@]1(C)C3CC[C@H]4C(C)(C)C(OC(=O)NC5COC5)CC[C@@]45C[C@@]35CC[C@]21C)C(C)(C)O` (stereo partly drawn), the inhibition at 20 µM in the test with Aβ-40 (Homo sapiens, Aβ-40, 20 μM) lay in the range of 25 to 75%. Further, the pIC50 in the test on Aβ-42 (setting [2]), in the test on Aβ-42 (setting [1]) and with Aβ-38 (setting [2]) was more than 6.00 throughout.
Take `CO[C@@H]([C@H]1C[C@@H](C)[C@H]2[C@H](O1)[C@H](O)[C@@]1(C)C3CC[C@H]4C(C)(C)[C@@H](O[C@H]5CN(C6COC6)CCO5)CC[C@@]45C[C@@]35CC[C@]21C)C(C)(C)O` (stereo partly drawn): the pIC50 is 5.00 to 6.00 with Aβ-40 (setting [2]), more than 6.00 in the test on Aβ-42 (setting [2]) and more than 6.00 with Aβ-38 (setting [2]).

These data come from patent publication US20110251379A1, “COMPOUNDS USEFUL FOR TREATING NEURODEGENERATIVE DISORDERS” (Satori Pharmaceuticals, Inc., priority 2010, published 2011).
